Laboratory results from the CheMixHub viscosity set.
Where “and” joins values, the source holds several entries; their conditions need not be identical. Equal entries are not always repeated.

Test: xn = mol fraction of the nth substance listed

CCC(C)=O + Cc1ccccc1
viscosity, 101 kPa
Details	298.15 K	303.15 K	308.15 K
x1 = 0.1009	–	0.516 mPa·s	–
x1 = 0.2412	–	0.496 mPa·s	–
x1 = 0.3948	–	0.475 mPa·s	–
x1 = 0.524	–	0.458 mPa·s	–
x1 = 0.7006	–	0.431 mPa·s	–
x1 = 0.8899	–	0.397 mPa·s	–
x2 = 0.0856	0.4052 mPa·s and 0.4052 mPa·s	0.3822 mPa·s and 0.3822 mPa·s	0.3593 mPa·s and 0.3593 mPa·s
x2 = 0.1724	0.4244 mPa·s and 0.4244 mPa·s	0.3996 mPa·s and 0.3996 mPa·s	0.3756 mPa·s and 0.3756 mPa·s
x2 = 0.2624	0.4439 mPa·s and 0.4439 mPa·s	0.4176 mPa·s and 0.4176 mPa·s	0.3922 mPa·s and 0.3922 mPa·s
x2 = 0.337	0.4594 mPa·s and 0.4594 mPa·s	0.432 mPa·s and 0.432 mPa·s	0.4061 mPa·s and 0.4061 mPa·s
x2 = 0.433	0.4781 mPa·s and 0.4781 mPa·s	0.4494 mPa·s and 0.4494 mPa·s	0.423 mPa·s and 0.423 mPa·s
x2 = 0.5555	0.4987 mPa·s and 0.4987 mPa·s	0.4688 mPa·s and 0.4688 mPa·s	0.4417 mPa·s and 0.4417 mPa·s
x2 = 0.66	0.5145 mPa·s and 0.5145 mPa·s	0.4844 mPa·s and 0.4844 mPa·s	0.4575 mPa·s and 0.4575 mPa·s
x2 = 0.769	0.5308 mPa·s and 0.5308 mPa·s	0.5002 mPa·s and 0.5002 mPa·s	0.4738 mPa·s and 0.4738 mPa·s
x2 = 0.8831	0.5472 mPa·s and 0.5472 mPa·s	0.5168 mPa·s and 0.5168 mPa·s	0.4909 mPa·s and 0.4909 mPa·s

C1CCCCC1 + CCCCCCC
Details	viscosity [mPa·s]
298.15 K, 101 kPa, x1 = 0.3947	0.588
298.15 K, 101 kPa, x1 = 0.4171	0.598
298.15 K, 101 kPa, x1 = 0.4283	0.604
298.15 K, 101 kPa, x1 = 0.4413	0.612
298.15 K, 101 kPa, x1 = 0.4536	0.618
298.15 K, 101 kPa, x1 = 0.4623	0.622
298.15 K, 101 kPa, x1 = 0.469	0.626
298.15 K, 101 kPa, x1 = 0.4767	0.629
298.15 K, 101 kPa, x1 = 0.4813	0.631
298.15 K, 101 kPa, x1 = 0.4869	0.634
298.15 K, 101 kPa, x1 = 0.4921	0.636
298.15 K, 101 kPa, x1 = 0.4949	0.638
298.15 K, 101 kPa, x1 = 0.499	0.64
298.15 K, 101 kPa, x1 = 0.5069	0.644
298.15 K, 101 kPa, x1 = 0.5154	0.648
298.15 K, 101.33 kPa, x1 = 0.1013	0.406
298.15 K, 101.33 kPa, x1 = 0.1036	0.4183
298.15 K, 101.33 kPa, x1 = 0.2023	0.4381
298.15 K, 101.33 kPa, x1 = 0.2027	0.425
298.15 K, 101.33 kPa, x1 = 0.2962	0.46
298.15 K, 101.33 kPa, x1 = 0.304	0.448
298.15 K, 101.33 kPa, x1 = 0.3888	0.484
298.15 K, 101.33 kPa, x1 = 0.4037	0.475
298.15 K, 101.33 kPa, x1 = 0.4752	0.512
298.15 K, 101.33 kPa, x1 = 0.4998	0.505
298.15 K, 101.33 kPa, x1 = 0.5556	0.5415
298.15 K, 101.33 kPa, x1 = 0.6018	0.546
298.15 K, 101.33 kPa, x1 = 0.6389	0.5789
298.15 K, 101.33 kPa, x1 = 0.6985	0.594
298.15 K, 101.33 kPa, x1 = 0.7049	0.6136
298.15 K, 101.33 kPa, x1 = 0.7751	0.6582
298.15 K, 101.33 kPa, x1 = 0.8024	0.661
298.15 K, 101.33 kPa, x1 = 0.8468	0.7195
298.15 K, 101.33 kPa, x1 = 0.9002	0.751
298.15 K, 101.33 kPa, x1 = 0.9096	0.7778
298.15 K, 101.33 kPa, x1 = 0.9735	0.8588
298.15 K, 101.33 kPa, x2 = 0.1008	0.776
298.15 K, 101.33 kPa, x2 = 0.2001	0.68
298.15 K, 101.33 kPa, x2 = 0.2493	0.641
298.15 K, 101.33 kPa, x2 = 0.3511	0.578
298.15 K, 101.33 kPa, x2 = 0.4012	0.556
298.15 K, 101.33 kPa, x2 = 0.4993	0.52
298.15 K, 101.33 kPa, x2 = 0.5726	0.483
298.15 K, 101.33 kPa, x2 = 0.6007	0.479
298.15 K, 101.33 kPa, x2 = 0.7471	0.447
298.15 K, 101.33 kPa, x2 = 0.8984	0.409
303.15 K, 101 kPa, x1 = 0.0998	0.3894
303.15 K, 101 kPa, x1 = 0.2012	0.4064
303.15 K, 101 kPa, x1 = 0.298	0.4275
303.15 K, 101 kPa, x1 = 0.3986	0.454
303.15 K, 101 kPa, x1 = 0.5009	0.4857
303.15 K, 101 kPa, x1 = 0.5994	0.524
303.15 K, 101 kPa, x1 = 0.7025	0.5716
303.15 K, 101 kPa, x1 = 0.7975	0.6321
303.15 K, 101 kPa, x1 = 0.9009	0.7191
303.15 K, 101.33 kPa, x1 = 0.1013	0.386
303.15 K, 101.33 kPa, x1 = 0.2027	0.402
303.15 K, 101.33 kPa, x1 = 0.304	0.422
303.15 K, 101.33 kPa, x1 = 0.4037	0.447
303.15 K, 101.33 kPa, x1 = 0.4998	0.477
303.15 K, 101.33 kPa, x1 = 0.6018	0.512
303.15 K, 101.33 kPa, x1 = 0.6985	0.556
303.15 K, 101.33 kPa, x1 = 0.8024	0.619
303.15 K, 101.33 kPa, x1 = 0.9002	0.694
308.15 K, 101.33 kPa, x1 = 0.1013	0.365
308.15 K, 101.33 kPa, x1 = 0.2027	0.379
308.15 K, 101.33 kPa, x1 = 0.304	0.399
308.15 K, 101.33 kPa, x1 = 0.4037	0.422
308.15 K, 101.33 kPa, x1 = 0.4998	0.448
308.15 K, 101.33 kPa, x1 = 0.6018	0.481
308.15 K, 101.33 kPa, x1 = 0.6985	0.52
308.15 K, 101.33 kPa, x1 = 0.8024	0.577
308.15 K, 101.33 kPa, x1 = 0.9002	0.643

CCC(C)=O + C1CCCCC1
Details	viscosity [mPa·s]
293.15 K, 101.33 kPa, x2 = 0.0479	0.401
293.15 K, 101.33 kPa, x2 = 0.0956	0.404
293.15 K, 101.33 kPa, x2 = 0.1983	0.433
293.15 K, 101.33 kPa, x2 = 0.3046	0.466
293.15 K, 101.33 kPa, x2 = 0.4002	0.488
293.15 K, 101.33 kPa, x2 = 0.5028	0.53
293.15 K, 101.33 kPa, x2 = 0.6056	0.581
293.15 K, 101.33 kPa, x2 = 0.703	0.641
293.15 K, 101.33 kPa, x2 = 0.8048	0.72
293.15 K, 101.33 kPa, x2 = 0.9029	0.824
293.15 K, 101.33 kPa, x2 = 0.9515	0.888
298 K, 101.3 kPa, x2 = 0.126	0.426
298 K, 101.3 kPa, x2 = 0.2633	0.448
298 K, 101.3 kPa, x2 = 0.4524	0.501
298 K, 101.3 kPa, x2 = 0.6037	0.554
298 K, 101.3 kPa, x2 = 0.8267	0.685
298.15 K, 101 kPa, x2 = 0.1	0.41
298.15 K, 101 kPa, x2 = 0.2	0.425
298.15 K, 101 kPa, x2 = 0.3	0.444
298.15 K, 101 kPa, x2 = 0.4	0.472
298.15 K, 101 kPa, x2 = 0.5	0.508
298.15 K, 101 kPa, x2 = 0.6	0.548
298.15 K, 101 kPa, x2 = 0.7	0.595
298.15 K, 101 kPa, x2 = 0.8	0.665
298.15 K, 101 kPa, x2 = 0.9	0.752
298.15 K, 101.33 kPa, x2 = 0.0479	0.381
298.15 K, 101.33 kPa, x2 = 0.0956	0.39
298.15 K, 101.33 kPa, x2 = 0.1983	0.41
298.15 K, 101.33 kPa, x2 = 0.3046	0.441
298.15 K, 101.33 kPa, x2 = 0.4002	0.459
298.15 K, 101.33 kPa, x2 = 0.5028	0.498
298.15 K, 101.33 kPa, x2 = 0.6056	0.543
298.15 K, 101.33 kPa, x2 = 0.703	0.597
298.15 K, 101.33 kPa, x2 = 0.8048	0.668
298.15 K, 101.33 kPa, x2 = 0.9029	0.76
298.15 K, 101.33 kPa, x2 = 0.9515	0.816
303.15 K, 101.33 kPa, x2 = 0.0479	0.363
303.15 K, 101.33 kPa, x2 = 0.0956	0.37
303.15 K, 101.33 kPa, x2 = 0.1983	0.388
303.15 K, 101.33 kPa, x2 = 0.3046	0.419
303.15 K, 101.33 kPa, x2 = 0.4002	0.433
303.15 K, 101.33 kPa, x2 = 0.5028	0.468
303.15 K, 101.33 kPa, x2 = 0.6056	0.51
303.15 K, 101.33 kPa, x2 = 0.703	0.558
303.15 K, 101.33 kPa, x2 = 0.8048	0.622
303.15 K, 101.33 kPa, x2 = 0.9029	0.705
303.15 K, 101.33 kPa, x2 = 0.9515	0.754
307.35 K, 101.33 kPa, x1 = 0.1093	0.648
307.35 K, 101.33 kPa, x1 = 0.361	0.504
307.35 K, 101.33 kPa, x1 = 0.4975	0.453
307.35 K, 101.33 kPa, x1 = 0.555	0.429
307.35 K, 101.33 kPa, x1 = 0.6809	0.413
307.35 K, 101.33 kPa, x1 = 0.8865	0.366
318 K, 101.3 kPa, x2 = 0.1257	0.349
318 K, 101.3 kPa, x2 = 0.2611	0.3682
318 K, 101.3 kPa, x2 = 0.4518	0.3996
318 K, 101.3 kPa, x2 = 0.6033	0.4343
318 K, 101.3 kPa, x2 = 0.8254	0.5157

COC(C)=O + ClC(Cl)Cl
303.15 K, 101.3 kPa
Details	viscosity [mPa·s]
x1 = 0.1026	0.5228
x1 = 0.2027	0.525
x1 = 0.3012	0.5197
x1 = 0.4009	0.5018
x1 = 0.5028	0.4782
x1 = 0.6033	0.4508
x1 = 0.7158	0.4176
x1 = 0.813	0.3893
x1 = 0.8983	0.3686

COC(C)=O + CCCCO
298.15 K, 101.33 kPa
Details	viscosity [mPa·s]
x1 = 0.0786	1.953
x1 = 0.144	1.566
x1 = 0.2105	1.28
x1 = 0.2986	1.019
x1 = 0.4151	0.791
x1 = 0.4971	0.677
x1 = 0.5919	0.576
x1 = 0.6406	0.534
x1 = 0.7116	0.484
x1 = 0.7972	0.44
x1 = 0.9034	0.402

COC(C)=O + CCC(C)O
298.15 K, 101.33 kPa
Details	viscosity [mPa·s]
x1 = 0.1056	1.854
x1 = 0.2017	1.275
x1 = 0.3076	0.921
x1 = 0.3884	0.771
x1 = 0.4935	0.64
x1 = 0.5697	0.559
x1 = 0.6653	0.485
x1 = 0.7801	0.429
x1 = 0.876	0.411
